{"source": "patent US8383578B2", "about": "“Peptides, derivatives and analogs thereof, and methods of using same” (CureDM Group Holdings, LLC, priority 2005, dated 2013)", "key": {"[1]": {"tested_on": "human pancreatic ductal tissue culture", "assay": "Insulin production in human pancreatic ductal tissue culture, radioimmunoassay", "assay_type": "cell-based", "conditions": "3.3 μM (final culture concentration of 165 nM)", "experimental": "(§1) Human pancreatic islet and progenitor fractions were cultured over 10 days, according to standard protocol. Briefly, pancreata from adult human cadaveric organ donors were obtained through the local organ procurement organization. Islets were isolated according to established protocols described by Bonner-Weir and Jamal. (Bonner-Weir et al., Pediatric Diabetes: 2004; 5(Suppl 2):16-22. Jamal et al., Cell Death Differ. 2005 July; 12(7):702-12).\n(§2) Following removal of the organ, cold ischemia time was no more than 8 hours prior to islet isolation. The main pancreatic duct was cannulated and perfused with Liberase HI (Roche Diagnostics). The perfused organ was placed in a closed system (Ricordi Apparatus) and heated to 37° C. to activate the enzyme blend. Following the appearance of free islets in samples, the system was cooled and free tissues were collected and washed. Tissues were applied to a continuous density gradient created using Ficoll (Biochrom KG) in a cell processor (COBE). Free islets with diameters ranging from 75 to 400 μm, determined to be greater than 90% pure by staining with dithizone (Sigma) a zinc chelater, were collected and washed. IHC to detect the presence of amylase and cytokeratin was negative, consistent with the absence of progenitor and exocrine tissue. The progenitor fraction from this separation was also collected for culture.\n(§3) Isolated islets were embedded in a type 1 collagen matrix at a density of 2000 islet equivalents/25 cm^2 and cultured in DMEM/F12 containing 10% FBS, 1 μM dexamethasone, 10 ng/ml EGF, 24 mU/ml insulin and 100 ng/ml cholera toxin. Medium was changed every other day. On day 10, culture was continued in the above medium, without the cholera toxin, with neogenic agents and inhibitors at the final concentrations listed below. Medium was changed every other day. Collagen-embedded cultures were harvested by incubating with 0.25 g/L collagenase XI (Sigma) for 30 minutes at 37° C. […]\n(§4) Insulin levels were detected by Radioimmunoassay (RIA) from cultures treated with saline only, scrambled peptide, SEQ ID NOs: 7, 3 or 2 and hamster INGAP. […]"}, "[2]": {"tested_on": "human pancreatic islet tissue", "assay": "Insulin production in human pancreatic islet tissue culture, radioimmunoassay", "assay_type": "cell-based", "conditions": "1 mM for a final culture concentration of 500 nM", "experimental": "as §1, §2, §3, §4"}, "[3]": {"tested_on": "human pancreatic progenitor cells", "assay": "Islet generation in human ductal tissue culture, inverted microscopy", "assay_type": "cell-based", "conditions": "ductal/progenitor tissue fraction culture treated with HIP; listed as HIP", "experimental": "A human ductal tissue fraction was isolated and cultured as described in Example 1. After 10 days of culture, cells were treated with HIP for four days and observed using inverted microscopy. […] Islets have formed what has previously been described as ductal epithelial cysts and are starting to bud at one end where a progenitor cell resides. […] In this panel the darkening of the budding portion of the ductal epithelial cyst indicates the differentiation of cells consistent with previously shown changes that occur with hamster INGAP treatment in vitro."}, "NOD mice": {"tested_on": "NOD mice", "assay": "HIP treatment of non-obese diabetic (NOD) mice", "assay_type": "in vivo, mouse", "conditions": "HIP 1 μg/kg/day to 100 mg/kg/day, protocol example", "source_text": "Animal Model. The non-obese diabetic (NOD) mouse strain has long been studied as an excellent model of type 1 diabetes because it spontaneously develops a disease that is very similar to the human condition. Delovitch, T. L., and Singh, B. 1997. Immunity. 7:727-738. Diabetes in NOD mice is mediated by inflammatory autoreactive T cells that recognize pancreatic islet antigens and escape central and peripheral tolerance.\nProcedure: In a parental colony of NOD mice, incidence of diabetes in female NOD mice is typically 75-90% by 30 weeks but may exceed 90% in some cohorts. […] Doses of HIP range from 1 μg/kg/day to 100 mg/kg/day.\nTreatment. Cohorts are treated in 2 arms with 2-4 dose ranges of HIP and a placebo, at a compensated dose for animal size, metabolism and circulation, or about 1/6 the mg/kg equivalence. Arm 1: saline, Arm 2: HIP.\nStudy Assessment. Blood glucose levels are measured every week with a One Touch II glucose meter (Lifescan). Mice are considered diabetic after 2 consecutive measurements over 300 mg/dl. For histological analysis, pancreases are snap-frozen. Multiple 5-μm sections are stained with hematoxylin and eosin and scored blindly for severity of insulitis as known in the art."}, "[4]": {"tested_on": "human pancreatic islet tissue cultures", "assay": "Insulin production in human pancreatic islet tissue cultures, ELISA", "assay_type": "cell-based", "conditions": "for insulin production vs Peptide 4 (hamster INGAP) and Peptide 5 (scrambled) (FIG. 5): after 10 days, Rosenberg protocol, 0.002 μg of each peptide in duplicate; for insulin production vs hamster INGAP and scrambled control (FIG. 7B): two concentrations of peptide (3 μM and 1 mM)", "experimental": "(§5) Human pancreatic tissue was treated as described in Example 1 and Insulin production was measured by ELISA assay. FIGS. 4 and 5 show the results of this experiment to show a dose response and to again compare the effect of HIP on the two different fractions of tissue as compared to the hamster INGAP sequence and a scrambled negative peptide sequence. […] The results in FIG. 4 involve the use of 5 μg of each peptide, while the results in FIG. 5 were acquired using 0.002 μg of each peptide."}, "[5]": {"tested_on": "human pancreatic ductal tissue cultures", "assay": "Insulin production in human pancreatic ductal tissue cultures, ELISA", "assay_type": "cell-based", "conditions": "for insulin production vs Peptide 4 (hamster INGAP) and Peptide 5 (scrambled) (FIG. 4): after 10 days, Rosenberg protocol, samples 5 μg total protein in duplicate; for insulin production vs hamster INGAP and scrambled control (FIG. 7A): two concentrations of peptide (3 μM and 1 mM)", "experimental": "as §5"}, "diabetic patients": {"tested_on": "diabetic patients", "conditions": "cited from earlier work"}, "type 1 patients": {"tested_on": "type 1 patients", "conditions": "cited from earlier work"}, "[6]": {"conditions": "dosages up to 10,000 IU/day; cited from earlier work"}}, "note": "“Also recorded” adds a separate entry of the source.", "data": [{"compound": "IGLHDPTQGTEPNGE (listed as Homo sapiens) [HIP3]", "values": [{"measurement": "insulin production vs INGAP peptide and scrambled negative control (FIG. 1)", "setting": "[1]", "value": "increased insulin production"}, {"measurement": "insulin production vs INGAP peptide and scrambled negative control (FIG. 2)", "setting": "[2]", "value": "increased insulin production"}, {"measurement": "new islet structure formation in culture (micrographs)", "setting": "[3]", "value": "Morphological changes show islet like structure; also recorded: New islet structure has formed; also recorded: forming a nidus of new insulin producing islets; also recorded: forming insulin producing islet like structure"}, {"measurement": "blood glucose levels", "setting": "NOD mice", "value": "pronounced reduction"}, {"measurement": "insulitis in pancreases (histology)", "setting": "NOD mice", "value": "decreased showing of insulinitis"}, {"measurement": "insulin production vs Peptide 4 (hamster INGAP) and Peptide 5 (scrambled) (FIG. 5)", "setting": "[4]", "value": "increased insulin production"}, {"measurement": "insulin production vs hamster INGAP and scrambled control (FIG. 7B)", "setting": "[4]", "value": "increased insulin production"}, {"measurement": "insulin production vs Peptide 4 (hamster INGAP) and Peptide 5 (scrambled) (FIG. 4)", "setting": "[5]", "value": "increased insulin production"}, {"measurement": "insulin production vs hamster INGAP and scrambled control (FIG. 7A)", "setting": "[5]", "value": "increased insulin production"}]}, {"compound": "IGLHDPSHGTLPNGS (listed as Hamster sp.) [hamster INGAP]", "values": [{"measurement": "patients with a >50% increase in GAD65 antibody titers", "setting": "diabetic patients; 300 mg/day treatment group, Phase II study", "value": 22, "unit": "%"}, {"measurement": "C-peptide secretion", "setting": "diabetic patients; 600 mg/day", "value": "increase"}, {"measurement": "effectiveness", "setting": "diabetic patients; Phase II trial", "value": "Little effectiveness"}, {"measurement": "patient drop out due to discomfort and bruising at injection site", "setting": "diabetic patients; human, in vivo", "value": "high drop out"}, {"measurement": "tolerability", "setting": "diabetic patients; human, in vivo", "value": "well tolerated"}, {"measurement": "hemoglobin A1C", "setting": "diabetic patients; type 2 diabetes patients", "value": "fell"}]}, {"compound": "WIGLHDPTQGTEPNG [HIP1]", "values": [{"measurement": "insulin production vs INGAP peptide and scrambled negative control (FIG. 1)", "setting": "[1]", "value": "increased insulin production"}, {"measurement": "insulin production vs INGAP peptide and scrambled negative control (FIG. 2)", "setting": "[2]", "value": "increased insulin production"}, {"measurement": "insulin production vs Peptide 4 (hamster INGAP) and Peptide 5 (scrambled) (FIG. 5)", "setting": "[4]", "value": "increased insulin production"}, {"measurement": "insulin production vs hamster INGAP and scrambled control (FIG. 7B)", "setting": "[4]", "value": "increased insulin production"}, {"measurement": "insulin production vs Peptide 4 (hamster INGAP) and Peptide 5 (scrambled) (FIG. 4)", "setting": "[5]", "value": "increased insulin production"}, {"measurement": "insulin production vs hamster INGAP and scrambled control (FIG. 7A)", "setting": "[5]", "value": "increased insulin production"}]}, {"compound": "CC[C@H](C)[C@H](NC(=O)[C@@H]1CCCN1C(=O)CNC(=O)[C@H](Cc1ccccc1)NC(=O)[C@H](CC(N)=O)NC(=O)[C@H](CC(N)=O)NC(=O)[C@H](CO)NC(=O)[C@H](CO)NC(=O)[C@H](Cc1c[nH]cn1)NC(=O)[C@@H](NC(=O)[C@H](CC(C)C)NC(=O)[C@H](Cc1ccccc1)NC(=O)[C@H](CC(N)=O)NC(=O)[C@H](C)NC(=O)[C@H](CC(C)C)NC(=O)[C@H](CCCNC(=N)N)NC(=O)[C@H](CCC(N)=O)NC(=O)[C@@H](NC(=O)[C@H](C)NC(=O)[C@@H]1CSSC[C@H](NC(=O)[C@@H](N)CCCCN)C(=O)N[C@@H](CC(N)=O)C(=O)N[C@@H]([C@@H](C)O)C(=O)N[C@@H](C)C(=O)N[C@@H]([C@@H](C)O)C(=O)N1)[C@@H](C)O)C(C)C)C(=O)N[C@@H](CC(C)C)C(=O)N1CCC[C@H]1C(=O)N1CCC[C@H]1C(=O)N[C@H](C(=O)N[C@@H](CC(N)=O)C(=O)N[C@H](C(=O)NCC(=O)N[C@@H](CO)C(=O)N[C@@H](CC(N)=O)C(=O)N[C@H](C(=O)N[C@@H](Cc1ccc(O)cc1)C(N)=O)[C@@H](C)O)C(C)C)[C@@H](C)O", "note": "[Pramlintide]", "values": [{"measurement": "glycemic excursions and pre-meal insulin requirements", "setting": "type 1 patients", "value": "reduce glycemic excursions"}]}, {"compound": "IGLHDPTQGTEPNG (listed as Homo sapiens) [HIP2]", "values": [{"measurement": "insulin production vs INGAP peptide and scrambled negative control (FIG. 1)", "setting": "[1]", "value": "increased insulin production"}, {"measurement": "insulin production vs INGAP peptide and scrambled negative control (FIG. 2)", "setting": "[2]", "value": "increased insulin production"}, {"measurement": "insulin production vs Peptide 4 (hamster INGAP) and Peptide 5 (scrambled) (FIG. 5)", "setting": "[4]", "value": "increased insulin production"}, {"measurement": "insulin production vs hamster INGAP and scrambled control (FIG. 7B)", "setting": "[4]", "value": "increased insulin production"}, {"measurement": "insulin production vs Peptide 4 (hamster INGAP) and Peptide 5 (scrambled) (FIG. 4)", "setting": "[5]", "value": "increased insulin production"}, {"measurement": "insulin production vs hamster INGAP and scrambled control (FIG. 7A)", "setting": "[5]", "value": "increased insulin production"}]}, {"compound": "C=C1CC[C@H](O)C/C1=C/C=C1\\CCC[C@]2(C)[C@@H]([C@H](C)CCCC(C)C)CC[C@@H]12", "note": "[Vitamin D, cholecalciferol]", "values": [{"measurement": "adverse effects", "setting": "[6]", "value": "No adverse effects"}]}]}
